Data published in ChEMBL document CHEMBL1150977, “A quantitative analysis of kinase inhibitor selectivity” (Nat Biotechnol, 2008).
pKd: −log10 of the molar value.

target: Tyrosine-protein kinase Fgr (Homo sapiens, UniProt P09769)

| SMILES | pKd |
| --- | --- |
| COCC(=O)NC/C=C/c1ccc2ncnc(Nc3ccc(Oc4ccc(C)nc4)c(C)c3)c2c1 [CP-724714] | < 5.00 |
| NC(=O)c1ccc(-c2nc(-c3ccc4c(c3)OCO4)c(-c3ccccn3)[nH]2)cc1 [SB-431542] | < 5.00 |

target: Platelet-derived growth factor receptor alpha (Homo sapiens, UniProt P16234)

| SMILES | pKd |
| --- | --- |
| COCC(=O)NC/C=C/c1ccc2ncnc(Nc3ccc(Oc4ccc(C)nc4)c(C)c3)c2c1 [CP-724714] | < 5.00 |
| NC(=O)c1ccc(-c2nc(-c3ccc4c(c3)OCO4)c(-c3ccccn3)[nH]2)cc1 [SB-431542] | < 5.00 |

target: Tyrosine-protein kinase Lyn (Homo sapiens, UniProt P07948)

| SMILES | pKd |
| --- | --- |
| Nc1nc(Nc2ccc(S(N)(=O)=O)cc2)nn1C(=O)c1c(F)cccc1F [JNJ-7706621] | < 5.00 |
| COCC(=O)NC/C=C/c1ccc2ncnc(Nc3ccc(Oc4ccc(C)nc4)c(C)c3)c2c1 [CP-724714] | < 5.00 |
| NC(=O)c1ccc(-c2nc(-c3ccc4c(c3)OCO4)c(-c3ccccn3)[nH]2)cc1 [SB-431542] | < 5.00 |

target: Mitogen-activated protein kinase kinase kinase kinase 4 (Homo sapiens, UniProt O95819)

| SMILES | pKd |
| --- | --- |
| COCC(=O)NC/C=C/c1ccc2ncnc(Nc3ccc(Oc4ccc(C)nc4)c(C)c3)c2c1 [CP-724714] | < 5.00 |
| NC(=O)c1ccc(-c2nc(-c3ccc4c(c3)OCO4)c(-c3ccccn3)[nH]2)cc1 [SB-431542] | < 5.00 |

target: MAP kinase-interacting serine/threonine-protein kinase 2 (Homo sapiens, UniProt Q9HBH9)

| SMILES | pKd |
| --- | --- |
| Nc1nc(Nc2ccc(S(N)(=O)=O)cc2)nn1C(=O)c1c(F)cccc1F [JNJ-7706621] | < 5.00 |
| COCC(=O)NC/C=C/c1ccc2ncnc(Nc3ccc(Oc4ccc(C)nc4)c(C)c3)c2c1 [CP-724714] | 6.08 |
| NC(=O)c1ccc(-c2nc(-c3ccc4c(c3)OCO4)c(-c3ccccn3)[nH]2)cc1 [SB-431542] | < 5.00 |

target: Myosin light chain kinase, smooth muscle (Homo sapiens, UniProt Q15746)

| SMILES | pKd |
| --- | --- |
| COCC(=O)NC/C=C/c1ccc2ncnc(Nc3ccc(Oc4ccc(C)nc4)c(C)c3)c2c1 [CP-724714] | < 5.00 |
| NC(=O)c1ccc(-c2nc(-c3ccc4c(c3)OCO4)c(-c3ccccn3)[nH]2)cc1 [SB-431542] | < 5.00 |

target: Tyrosine-protein kinase Yes (Homo sapiens, UniProt P07947)

| SMILES | pKd |
| --- | --- |
| Nc1nc(Nc2ccc(S(N)(=O)=O)cc2)nn1C(=O)c1c(F)cccc1F [JNJ-7706621] | < 5.00 |
| COCC(=O)NC/C=C/c1ccc2ncnc(Nc3ccc(Oc4ccc(C)nc4)c(C)c3)c2c1 [CP-724714] | < 5.00 |
| NC(=O)c1ccc(-c2nc(-c3ccc4c(c3)OCO4)c(-c3ccccn3)[nH]2)cc1 [SB-431542] | < 5.00 |

target: Serine/threonine-protein kinase 25 (Homo sapiens, UniProt O00506)

| SMILES | pKd |
| --- | --- |
| Nc1nc(Nc2ccc(S(N)(=O)=O)cc2)nn1C(=O)c1c(F)cccc1F [JNJ-7706621] | 6.44 |
| COCC(=O)NC/C=C/c1ccc2ncnc(Nc3ccc(Oc4ccc(C)nc4)c(C)c3)c2c1 [CP-724714] | < 5.00 |
| NC(=O)c1ccc(-c2nc(-c3ccc4c(c3)OCO4)c(-c3ccccn3)[nH]2)cc1 [SB-431542] | < 5.00 |

target: T1, Activin receptor type-1B (Homo sapiens, UniProt P36896)
T1 sequence (P36896 whole entry): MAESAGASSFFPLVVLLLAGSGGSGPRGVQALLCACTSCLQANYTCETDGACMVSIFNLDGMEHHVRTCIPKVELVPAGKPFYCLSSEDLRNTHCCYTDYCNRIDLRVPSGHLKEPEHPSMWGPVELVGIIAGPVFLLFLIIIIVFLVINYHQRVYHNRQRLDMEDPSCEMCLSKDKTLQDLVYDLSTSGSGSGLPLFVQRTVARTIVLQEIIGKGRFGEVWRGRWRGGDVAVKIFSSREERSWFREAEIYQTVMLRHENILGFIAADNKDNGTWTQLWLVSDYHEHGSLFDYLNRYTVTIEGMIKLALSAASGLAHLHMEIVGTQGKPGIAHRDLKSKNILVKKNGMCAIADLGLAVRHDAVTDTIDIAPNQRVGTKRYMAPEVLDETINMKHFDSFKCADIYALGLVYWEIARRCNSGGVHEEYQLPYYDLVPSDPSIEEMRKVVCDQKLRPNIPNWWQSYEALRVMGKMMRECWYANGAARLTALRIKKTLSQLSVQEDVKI

| SMILES | pKd |
| --- | --- |
| Nc1nc(Nc2ccc(S(N)(=O)=O)cc2)nn1C(=O)c1c(F)cccc1F [JNJ-7706621] | < 5.00 |
| COCC(=O)NC/C=C/c1ccc2ncnc(Nc3ccc(Oc4ccc(C)nc4)c(C)c3)c2c1 [CP-724714] | < 5.00 |

target: T2, Serine/threonine-protein kinase STK11 (Homo sapiens, UniProt Q15831)
T2 sequence (Q15831 whole entry): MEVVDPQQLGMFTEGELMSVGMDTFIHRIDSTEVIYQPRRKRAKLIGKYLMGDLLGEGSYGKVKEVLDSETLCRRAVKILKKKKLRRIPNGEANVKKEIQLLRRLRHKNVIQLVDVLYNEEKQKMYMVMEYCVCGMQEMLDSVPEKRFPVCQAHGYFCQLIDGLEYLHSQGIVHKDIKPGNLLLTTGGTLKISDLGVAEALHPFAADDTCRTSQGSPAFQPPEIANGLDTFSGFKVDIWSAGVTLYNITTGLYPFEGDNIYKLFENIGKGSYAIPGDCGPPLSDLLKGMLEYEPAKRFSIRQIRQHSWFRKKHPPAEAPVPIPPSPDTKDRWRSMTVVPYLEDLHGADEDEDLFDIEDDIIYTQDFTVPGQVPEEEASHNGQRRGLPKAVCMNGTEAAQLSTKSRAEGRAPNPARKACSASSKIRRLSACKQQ

| SMILES | pKd |
| --- | --- |
| Nc1nc(Nc2ccc(S(N)(=O)=O)cc2)nn1C(=O)c1c(F)cccc1F [JNJ-7706621] | < 5.00 |
| COCC(=O)NC/C=C/c1ccc2ncnc(Nc3ccc(Oc4ccc(C)nc4)c(C)c3)c2c1 [CP-724714] | < 5.00 |
| NC(=O)c1ccc(-c2nc(-c3ccc4c(c3)OCO4)c(-c3ccccn3)[nH]2)cc1 [SB-431542] | < 5.00 |

target: Activated CDC42 kinase 1 (Homo sapiens, UniProt Q07912)

| SMILES | pKd |
| --- | --- |
| COCC(=O)NC/C=C/c1ccc2ncnc(Nc3ccc(Oc4ccc(C)nc4)c(C)c3)c2c1 [CP-724714] | < 5.00 |
| NC(=O)c1ccc(-c2nc(-c3ccc4c(c3)OCO4)c(-c3ccccn3)[nH]2)cc1 [SB-431542] | < 5.00 |

target: Ribosomal protein S6 kinase alpha-5 (Homo sapiens, UniProt O75582)

| SMILES | pKd |
| --- | --- |
| Nc1nc(Nc2ccc(S(N)(=O)=O)cc2)nn1C(=O)c1c(F)cccc1F [JNJ-7706621] | < 5.00 |
| COCC(=O)NC/C=C/c1ccc2ncnc(Nc3ccc(Oc4ccc(C)nc4)c(C)c3)c2c1 [CP-724714] | < 5.00 |
| NC(=O)c1ccc(-c2nc(-c3ccc4c(c3)OCO4)c(-c3ccccn3)[nH]2)cc1 [SB-431542] | < 5.00 |

target: Dual specificity mitogen-activated protein kinase kinase 2 (Homo sapiens, UniProt P36507)

| SMILES | pKd |
| --- | --- |
| COCC(=O)NC/C=C/c1ccc2ncnc(Nc3ccc(Oc4ccc(C)nc4)c(C)c3)c2c1 [CP-724714] | < 5.00 |
| NC(=O)c1ccc(-c2nc(-c3ccc4c(c3)OCO4)c(-c3ccccn3)[nH]2)cc1 [SB-431542] | < 5.00 |

target: T3, Membrane-associated tyrosine- and threonine-specific cdc2-inhibitory kinase (Homo sapiens, UniProt Q99640)
T3 sequence (Q99640 whole entry): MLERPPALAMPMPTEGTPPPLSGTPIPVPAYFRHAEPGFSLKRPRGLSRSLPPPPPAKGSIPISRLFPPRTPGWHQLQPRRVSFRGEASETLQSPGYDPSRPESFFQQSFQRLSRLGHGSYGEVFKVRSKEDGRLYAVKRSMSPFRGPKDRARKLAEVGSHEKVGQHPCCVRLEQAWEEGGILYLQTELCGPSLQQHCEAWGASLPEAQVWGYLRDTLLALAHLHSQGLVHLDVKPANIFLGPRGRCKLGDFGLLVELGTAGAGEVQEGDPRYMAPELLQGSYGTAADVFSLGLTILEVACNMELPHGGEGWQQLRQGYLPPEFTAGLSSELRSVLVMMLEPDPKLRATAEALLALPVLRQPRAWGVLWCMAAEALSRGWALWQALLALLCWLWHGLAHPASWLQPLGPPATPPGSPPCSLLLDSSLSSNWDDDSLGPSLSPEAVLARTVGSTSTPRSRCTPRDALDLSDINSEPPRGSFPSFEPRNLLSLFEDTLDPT

| SMILES | pKd |
| --- | --- |
| Nc1nc(Nc2ccc(S(N)(=O)=O)cc2)nn1C(=O)c1c(F)cccc1F [JNJ-7706621] | < 5.00 |
| COCC(=O)NC/C=C/c1ccc2ncnc(Nc3ccc(Oc4ccc(C)nc4)c(C)c3)c2c1 [CP-724714] | < 5.00 |
| NC(=O)c1ccc(-c2nc(-c3ccc4c(c3)OCO4)c(-c3ccccn3)[nH]2)cc1 [SB-431542] | < 5.00 |

target: Serine/threonine-protein kinase pim-2 (Homo sapiens, UniProt Q9P1W9)

| SMILES | pKd |
| --- | --- |
| Nc1nc(Nc2ccc(S(N)(=O)=O)cc2)nn1C(=O)c1c(F)cccc1F [JNJ-7706621] | < 5.00 |
| COCC(=O)NC/C=C/c1ccc2ncnc(Nc3ccc(Oc4ccc(C)nc4)c(C)c3)c2c1 [CP-724714] | < 5.00 |
| NC(=O)c1ccc(-c2nc(-c3ccc4c(c3)OCO4)c(-c3ccccn3)[nH]2)cc1 [SB-431542] | < 5.00 |

target: Ribosomal protein S6 kinase alpha-4 (Homo sapiens, UniProt O75676)

| SMILES | pKd |
| --- | --- |
| Nc1nc(Nc2ccc(S(N)(=O)=O)cc2)nn1C(=O)c1c(F)cccc1F [JNJ-7706621] | < 5.00 |
| COCC(=O)NC/C=C/c1ccc2ncnc(Nc3ccc(Oc4ccc(C)nc4)c(C)c3)c2c1 [CP-724714] | < 5.00 |
| NC(=O)c1ccc(-c2nc(-c3ccc4c(c3)OCO4)c(-c3ccccn3)[nH]2)cc1 [SB-431542] | < 5.00 |

target: Interferon-induced, double-stranded RNA-activated protein kinase (Homo sapiens, UniProt P19525)

| SMILES | pKd |
| --- | --- |
| COCC(=O)NC/C=C/c1ccc2ncnc(Nc3ccc(Oc4ccc(C)nc4)c(C)c3)c2c1 [CP-724714] | < 5.00 |
| NC(=O)c1ccc(-c2nc(-c3ccc4c(c3)OCO4)c(-c3ccccn3)[nH]2)cc1 [SB-431542] | < 5.00 |

target: Calcium/calmodulin-dependent protein kinase kinase 2 (Homo sapiens, UniProt Q96RR4)

| SMILES | pKd |
| --- | --- |
| COCC(=O)NC/C=C/c1ccc2ncnc(Nc3ccc(Oc4ccc(C)nc4)c(C)c3)c2c1 [CP-724714] | < 5.00 |
| NC(=O)c1ccc(-c2nc(-c3ccc4c(c3)OCO4)c(-c3ccccn3)[nH]2)cc1 [SB-431542] | < 5.00 |

target: Fibroblast growth factor receptor 4 (Homo sapiens, UniProt P22455)

| SMILES | pKd |
| --- | --- |
| Nc1nc(Nc2ccc(S(N)(=O)=O)cc2)nn1C(=O)c1c(F)cccc1F [JNJ-7706621] | < 5.00 |
| COCC(=O)NC/C=C/c1ccc2ncnc(Nc3ccc(Oc4ccc(C)nc4)c(C)c3)c2c1 [CP-724714] | < 5.00 |
| NC(=O)c1ccc(-c2nc(-c3ccc4c(c3)OCO4)c(-c3ccccn3)[nH]2)cc1 [SB-431542] | < 5.00 |

target: Tyrosine-protein kinase JAK2 (Homo sapiens, UniProt O60674)

| SMILES | pKd |
| --- | --- |
| COCC(=O)NC/C=C/c1ccc2ncnc(Nc3ccc(Oc4ccc(C)nc4)c(C)c3)c2c1 [CP-724714] | < 5.00 |
| NC(=O)c1ccc(-c2nc(-c3ccc4c(c3)OCO4)c(-c3ccccn3)[nH]2)cc1 [SB-431542] | < 5.00 |
